Values joined by “and” are separate entries in the source; they are usually repeats but may differ in a detail not shown here. Identical values can stand only once. Toxic doses and inconclusive results are not listed. No stated cut-off is given here; in the data, active means T/C of 150% or more; inactive means T/C below 125%.
System: L1210 leukemia ip in BDF1 mice, survival T/C
Assay: NCI In Vivo Anticancer Drug Screen. Data for tumor model L1210 Leukemia (intraperitoneal) in B6D2F1 (BDF1) mice
Conditions: endpoint: mean survival time, higher = longer survival
Procedure, shortened: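 Transplanted-tumor mice were given test agent; controls received vehicle only. Survival readings from the two groups were divided (treated over control).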

[1] = dose: 100.0 mg/kg/injection, schedule: Q01DX009 (ip), vehicle: Klucel (hydroxypropylcellulose) (HPC)
[2] = dose: 200.0 mg/kg/injection, schedule: Q01DX009 (ip), vehicle: Klucel (hydroxypropylcellulose) (HPC)
[3] = dose: 400.0 mg/kg/injection, schedule: Q01DX009 (ip), vehicle: Klucel (hydroxypropylcellulose) (HPC)
[4] = dose: 100.0 mg/kg/injection, schedule: Q04DX003 (ip), vehicle: Klucel (hydroxypropylcellulose) (HPC)
[5] = dose: 100.0 mg/kg/injection, schedule: Q01DX001 (ip), vehicle: carboxymethylcellulose (CMC)
[6] = dose: 200.0 mg/kg/injection, schedule: Q01DX001 (ip), vehicle: carboxymethylcellulose (CMC)
[7] = dose: 400.0 mg/kg/injection, schedule: Q01DX001 (ip), vehicle: carboxymethylcellulose (CMC)
[8] = dose: 100.0 mg/kg/injection, schedule: Q04DX003 (ip), vehicle: saline
[9] = dose: 200.0 mg/kg/injection, schedule: Q04DX003 (ip), vehicle: saline
[10] = dose: 400.0 mg/kg/injection, schedule: Q04DX003 (ip), vehicle: saline

Measured: T/C

COc1ccc(N=NN(C)C(C)=O)cc1
inactive: dose: 50.0 mg/kg/injection, schedule: Q01DX009 (ip), vehicle: Klucel (hydroxypropylcellulose) (HPC) 102 % of control | dose: 75.0 mg/kg/injection, schedule: Q01DX001 (ip), vehicle: Klucel (hydroxypropylcellulose) (HPC) 101 % of control | [1] 103 % of control | dose: 150.0 mg/kg/injection, schedule: Q01DX001 (ip), vehicle: Klucel (hydroxypropylcellulose) (HPC) 93 % of control | [2] 100 % of control | dose: 300.0 mg/kg/injection, schedule: Q01DX001 (ip), vehicle: Klucel (hydroxypropylcellulose) (HPC) 96 % of control

O=C(O)COc1cccc([N+](=O)[O-])c1
inactive: [1] 96 % of control | [2] 98 % of control | [3] 94 % of control

c1ccc(-c2cccc3c2N=C2C3=Nc3c2cccc3-c2ccccc2)cc1
inactive: [4] 96 % of control | dose: 200.0 mg/kg/injection, schedule: Q04DX003 (ip), vehicle: Klucel (hydroxypropylcellulose) (HPC) 95 % of control | dose: 400.0 mg/kg/injection, schedule: Q04DX003 (ip), vehicle: Klucel (hydroxypropylcellulose) (HPC) 93 % of control

CC(=O)OC1CC2(CO2)C2CC3OC3(C)C2C2OC(=O)C(C)C12 (configuration not stated)
inactive: dose: 12.5 mg/kg/injection, schedule: Q04DX002 (ip), vehicle: saline 95 % of control | dose: 25.0 mg/kg/injection, schedule: Q04DX002 (ip), vehicle: saline 92 % of control | dose: 50.0 mg/kg/injection, schedule: Q04DX002 (ip), vehicle: saline 110 % of control | dose: 75.0 mg/kg/injection, schedule: Q04DX002 (ip), vehicle: saline 97 % of control | dose: 100.0 mg/kg/injection, schedule: Q04DX002 (ip), vehicle: saline 95 % of control | dose: 115.0 mg/kg/injection, schedule: Q04DX002 (ip), vehicle: saline 104 % of control | dose: 170.0 mg/kg/injection, schedule: Q04DX002 (ip), vehicle: saline 104 % of control | dose: 200.0 mg/kg/injection, schedule: Q04DX002 (ip), vehicle: saline 110 % of control | dose: 400.0 mg/kg/injection, schedule: Q04DX002 (ip), vehicle: saline 95 % of control

Cc1ccc(/C(=N\N=C(N)N)c2ccccc2)cc1
inactive: dose: 15.0 mg/kg/injection, schedule: Q01DX Z (ip), vehicle: saline 108 % of control | dose: 30.0 mg/kg/injection, schedule: Q01DX Z (ip), vehicle: saline 110 % of control | dose: 30.0 mg/kg/injection, schedule: Q01DX Z (oral), vehicle: other 105 % of control | dose: 60.0 mg/kg/injection, schedule: Q01DX Z (ip), vehicle: saline 109 % of control | dose: 60.0 mg/kg/injection, schedule: Q01DX Z (oral), vehicle: other 95 % of control

O=C(Nc1ccc(F)c([N+](=O)[O-])c1)Nc1cc(C(F)(F)F)ccc1Cl
inactive: [1] 101 % of control | [2] 90 % of control | [3] 89 % of control

CN(C)N=Nc1ccc2c(c1)C(=O)NC2=O
inactive: dose: 100.0 mg/kg/injection, schedule: Q04DX003 (ip), vehicle: saline with Tween-80 96 % of control | dose: 200.0 mg/kg/injection, schedule: Q04DX003 (ip), vehicle: saline with Tween-80 99 % of control | dose: 400.0 mg/kg/injection, schedule: Q04DX003 (ip), vehicle: saline with Tween-80 99 % of control

CCCCCC(C)(O)CC(C)(C)C (configuration not stated)
inactive: [5] 92 % of control | [6] 97 % of control | [7] 97 % of control

CCCCOCC(C)O (configuration not stated)
inactive: [8] 91 % of control | [9] 96 % of control | [10] 96 % of control

CN(N=O)c1ccc(/C=C2\C=Cc3ccccc32)cc1
inactive: dose: 50.0 mg/kg/injection, schedule: Q01DX001 (ip), vehicle: carboxymethylcellulose (CMC) 96 % of control | [5] 93 % of control | [6] 96 % of control | [7] 98 % of control

COc1cccc(CN(C)CCC(=O)O)c1
inactive: dose: 100.0 mg/kg/injection, schedule: Q01DX009 (ip), vehicle: saline 97 % of control | [8] 105 % of control | dose: 200.0 mg/kg/injection, schedule: Q01DX009 (ip), vehicle: saline 94 % of control | [9] 109 % of control | dose: 400.0 mg/kg/injection, schedule: Q01DX009 (ip), vehicle: saline 101 % of control | [10] 105 % of control

NCCSC1(O)C(=O)c2ccccc2C1=O
inactive: dose: 37.5 mg/kg/injection, schedule: Q04DX003 (ip), vehicle: saline 97 % of control | dose: 75.0 mg/kg/injection, schedule: Q01DX001 (ip), vehicle: saline 104 % of control | dose: 75.0 mg/kg/injection, schedule: Q04DX003 (ip), vehicle: saline 116 % of control | dose: 150.0 mg/kg/injection, schedule: Q01DX001 (ip), vehicle: saline 110 % of control | dose: 150.0 mg/kg/injection, schedule: Q04DX003 (ip), vehicle: saline 111 % of control

CCC(C)n1c(C)cc(=O)n1C(C)CC (configuration not stated)
inactive: dose: 15.0 mg/kg/injection, schedule: Q01DX001 (ip), vehicle: saline 101 % of control | dose: 30.0 mg/kg/injection, schedule: Q01DX001 (ip), vehicle: saline 97 % of control | dose: 60.0 mg/kg/injection, schedule: Q01DX001 (ip), vehicle: saline 101 % of control

CNC(=O)Nc1ccccc1[N+](=O)[O-]
inactive: dose: 100.0 mg/kg/injection, schedule: Q04DX002 (ip), vehicle: Klucel (hydroxypropylcellulose) (HPC) 108 % of control | dose: 200.0 mg/kg/injection, schedule: Q04DX002 (ip), vehicle: Klucel (hydroxypropylcellulose) (HPC) 97 % of control

Cc1ccc2[nH]c3c(c2c1)C[P+](Cc1cccc2ccccc12)(c1ccccc1)CC3 (configuration not stated)
inactive: dose: 25.0 mg/kg/injection, schedule: Q01DX001 (ip), vehicle: Klucel (hydroxypropylcellulose) (HPC) 87 % of control | dose: 25.0 mg/kg/injection, schedule: Q04DX003 (ip), vehicle: Klucel (hydroxypropylcellulose) (HPC) 91 % of control | dose: 50.0 mg/kg/injection, schedule: Q01DX001 (ip), vehicle: Klucel (hydroxypropylcellulose) (HPC) 92 % of control | dose: 50.0 mg/kg/injection, schedule: Q04DX003 (ip), vehicle: Klucel (hydroxypropylcellulose) (HPC) 105 % of control | dose: 100.0 mg/kg/injection, schedule: Q01DX001 (ip), vehicle: Klucel (hydroxypropylcellulose) (HPC) 112 % of control and 86 % of control | [4] 99 % of control | dose: 200.0 mg/kg/injection, schedule: Q01DX001 (ip), vehicle: Klucel (hydroxypropylcellulose) (HPC) 95 % of control

S=P(c1ccccc1)(c1cccc2ccccc12)c1cccc2ccccc12
inactive: dose: 100.0 mg/kg/injection, schedule: Q01DX001 (ip), vehicle: saline 93 % of control | dose: 200.0 mg/kg/injection, schedule: Q01DX001 (ip), vehicle: saline 96 % of control | dose: 400.0 mg/kg/injection, schedule: Q01DX001 (ip), vehicle: saline 93 % of control

NC(=O)SCC(=O)NNc1ccccc1
inactive: dose: 75.0 mg/kg/injection, schedule: Q01DX001 (ip), vehicle: other 90 % of control | dose: 150.0 mg/kg/injection, schedule: Q01DX001 (ip), vehicle: other 98 % of control | dose: 300.0 mg/kg/injection, schedule: Q01DX001 (ip), vehicle: other 100 % of control

COc1ccc(/C(Cc2ccccc2)=N\N=C(N)N)cc1
inactive: dose: 15.0 mg/kg/injection, schedule: Q01DX Z (ip), vehicle: carboxymethylcellulose (CMC) 97 % of control | dose: 30.0 mg/kg/injection, schedule: Q01DX Z (ip), vehicle: carboxymethylcellulose (CMC) 97 % of control | dose: 60.0 mg/kg/injection, schedule: Q01DX Z (ip), vehicle: carboxymethylcellulose (CMC) 97 % of control | dose: 120.0 mg/kg/injection, schedule: Q01DX Z (ip), vehicle: carboxymethylcellulose (CMC) 101 % of control | dose: 240.0 mg/kg/injection, schedule: Q01DX Z (oral), vehicle: carboxymethylcellulose (CMC) 108 % of control | dose: 480.0 mg/kg/injection, schedule: Q01DX Z (oral), vehicle: carboxymethylcellulose (CMC) 104 % of control | dose: 960.0 mg/kg/injection, schedule: Q01DX Z (oral), vehicle: carboxymethylcellulose (CMC) 88 % of control

Oc1ccc2ccccc2c1C(c1ccccc1)c1c(O)ccc2ccccc12
inactive: dose: 87.5 mg/kg/injection, schedule: Q04DX003 (ip), vehicle: carboxymethylcellulose (CMC) 106 % of control | dose: 175.0 mg/kg/injection, schedule: Q04DX003 (ip), vehicle: carboxymethylcellulose (CMC) 95 % of control | dose: 350.0 mg/kg/injection, schedule: Q04DX003 (ip), vehicle: carboxymethylcellulose (CMC) 111 % of control

CCCCCCN(C)Cc1ccc(OCCOc2ccc(CN(C)CCCCCC)cc2)cc1
inactive: dose: 50.0 mg/kg/injection, schedule: Q01DX001 (ip), vehicle: saline 100 % of control
